The term IC50 denotes the point on the concentration scale where inhibition reaches its midpoint.

Experimental findings from patent publication US11040035B2, “3-oxo-2,6-diphenyl-2,3-dihydropyridazine-4-carboxamides” (BAYER PHARMA AKTIENGESELLSCHAFT, priority 2016, dated 2021) are described below.

For series [1], the target named is T1, AHR (Homo sapiens, UniProt P35869).
T1 sequence (P35869 11-848): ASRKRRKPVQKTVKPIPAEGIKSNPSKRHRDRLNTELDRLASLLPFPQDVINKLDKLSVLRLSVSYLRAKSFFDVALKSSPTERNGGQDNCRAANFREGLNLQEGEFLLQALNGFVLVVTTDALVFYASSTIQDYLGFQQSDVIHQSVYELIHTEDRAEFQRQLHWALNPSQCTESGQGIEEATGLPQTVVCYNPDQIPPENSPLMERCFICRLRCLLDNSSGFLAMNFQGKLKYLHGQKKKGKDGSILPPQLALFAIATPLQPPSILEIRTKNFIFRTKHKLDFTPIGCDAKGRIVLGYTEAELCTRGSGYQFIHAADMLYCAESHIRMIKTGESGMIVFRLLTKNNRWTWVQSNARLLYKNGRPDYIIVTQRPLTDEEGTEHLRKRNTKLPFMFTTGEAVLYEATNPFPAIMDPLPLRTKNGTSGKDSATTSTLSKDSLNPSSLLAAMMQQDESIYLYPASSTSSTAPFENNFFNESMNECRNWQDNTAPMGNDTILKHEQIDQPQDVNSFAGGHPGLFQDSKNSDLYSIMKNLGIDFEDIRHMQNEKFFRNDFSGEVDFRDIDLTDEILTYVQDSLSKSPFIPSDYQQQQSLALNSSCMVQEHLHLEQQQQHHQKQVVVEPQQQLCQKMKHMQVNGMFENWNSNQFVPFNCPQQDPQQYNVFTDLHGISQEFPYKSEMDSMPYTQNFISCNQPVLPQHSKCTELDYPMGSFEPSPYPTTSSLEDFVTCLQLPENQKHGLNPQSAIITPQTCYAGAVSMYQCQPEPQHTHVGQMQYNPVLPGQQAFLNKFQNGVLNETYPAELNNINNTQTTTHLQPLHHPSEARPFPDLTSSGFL
The experiment in a line: In vitro assay 1: antagonism in human cell line (transactivation assay, kynurenic acid prestimulated).

The target in series [2] is T1, AHR. The experiment in a line: In vitro assay 2: agonism in human cell line (transactivation assay).
Setting [3] is: Assay 1: AHR-luc Hum Antagonism IC50 [M], 150 μM kynurenic acid, 20 hours, firefly luciferase.
Setting [4] is: Assay 2: AHR-luc Hum Agonism IC50 [M], no kynurenic acid, 20 hours, firefly luciferase.
Setting [5] is: read-out: Assay 2: AHR-luc Hum Agonism IC50, no kynurenic acid, 20 hours, firefly luciferase.

Take `COC(=O)C(C)(C)CNC(=O)c1cc(-c2ccc(Cl)cc2)nn(-c2cccc(F)c2)c1=O` [Example 398, methyl 3-({[6-(4-chlorophenyl)-2-(3-fluorophenyl)-3-oxo-2,3-dihydropyridazin-4-yl]carbonyl}amino)-2,2-dimethylpropanoate]: the values for the IC50 against AHR [1] (setting [3]) and against AHR [2] (setting [4]) were 4.2e-07 M and more than 2e-05 M, respectively.
The corresponding values for `C[C@@H](CO)NC(=O)c1cc(-c2ccc(Cl)cc2)nn(-c2cccc(Cl)c2)c1=O` [Example 66, 2-(3-Chlorophenyl)-6-(4-chlorophenyl)-N-[(2S)-1-hydroxypropan-2-yl]-3-oxo-2,3-dihydropyridazine-4-carboxamide] are 1.65e-07 M and more than 2e-05 M.
With `O=C(NCC(O)C(F)(F)F)c1cc(-c2ccc(C(F)(F)F)cc2)nn(-c2cccc(F)c2)c1=O` (single isomer, unassigned; (-)) [Example 243], the IC50 was 3.13e-08 M against AHR [1] (setting [3]) and more than 2e-05 M against AHR [2] (setting [4]).
For `O=C(N[C@H]1COC[C@@H]1O)c1cc(-c2ccc(N3CCOCC3)cc2)nn(-c2cccc(F)c2)c1=O` (relative stereo) [Example 378, rel-2-(3-fluorophenyl)-N-[(3R,4S)-4-hydroxytetrahydrofuran-3-yl]-6-[4-(morpholin-4-yl)phenyl]-3-oxo-2,3-dihydropyridazine-4-carboxamide], the IC50 on AHR [1] (setting [3]) was 2.48e-07 M; against AHR [2] (setting [4]), more than 2e-05 M.
Consider `C[C@@H](O)CCNC(=O)c1cc(-c2ccc(Cl)cc2)nn(-c2cccc(F)c2)c1=O` [Example 204, (−)-6-(4-Chlorophenyl)-2-(3-fluorophenyl)-N-[(3R)-3-hydroxybutyl]-3-oxo-2,3-dihydropyridazine-4-carboxamide], for which the 50% inhibitory concentration (IC50) against AHR [1] (setting [3]) was 3.85e-07 M; against AHR [2] (setting [4]) it was more than 2e-05 M.
Take `O=C(N[C@@H]1CCCC[C@@H]1O)c1cc(-c2ccc(Cl)c(F)c2)nn(-c2cccc(F)c2)c1=O` (relative stereo) [Example 291, 6-(4-Chloro-3-fluorophenyl)-2-(3-fluorophenyl)-N-(cis-2-hydroxycyclohexyl)-3-oxo-2,3-dihydropyridazine-4-carboxamide]: the IC50 against AHR [1] (setting [3]) is 8.51e-08 M; on AHR [2] (setting [4]), more than 2e-05 M.
Turning to `CN(C)c1ccc(-c2cc(C(=O)N[C@H](CO)C(F)(F)F)c(=O)n(-c3cccc(F)c3)n2)cc1Cl` [Example 373, 6-[3-chloro-4-(dimethylamino)phenyl]-2-(3-fluorophenyl)-3-oxo-N-[(2R)-1,1,1-trifluoro-3-hydroxypropan-2-yl]-2,3-dihydropyridazine-4-carboxamide], the IC50 is 1.69e-08 M at AHR [1] (setting [3]) and more than 2e-05 M against AHR [2] (setting [4]).
Turning to “2-(3-Fluorophenyl)-N-{(2-hydroxy-1-[tetrahydrofuran-3-yl]ethyl}-6-(4-methoxyphenyl)-3-oxo-2,3-dihydropyridazine-4-carboxamide [Example 158]”, the IC50 on AHR [1] (read-out: Assay 1: AHR-luc Hum Antagonism IC50, 150 μM kynurenic acid, 20 hours, firefly luciferase) is 2.75e-07 M; at AHR [2] (setting [5]) it was more than 2e-05 M.
As for `C[C@H](O)[C@H](C)NC(=O)c1cc(-c2ccc(Cl)cc2)nn(-c2cc(Cl)cc(Cl)c2)c1=O` (relative stereo) [Example 312, 6-(4-Chlorophenyl)-2-(3,5-dichlorophenyl)-N-[(2S,3S)-3-hydroxybutan-2-yl]-3-oxo-2,3-dihydropyridazine-4-carboxamide], the IC50 at AHR [1] (setting [3]) was 5.88e-07 M; at AHR [2] (setting [4]), more than 2e-05 M.
As for `O=C(NC(CO)C1CCOC1)c1cc(-c2ccc(OC(F)F)cc2)nn(-c2cccc(F)c2)c1=O` (single isomer, unassigned) [Example 148, 6-[4-(Difluoromethoxy)phenyl]-2-(3-fluorophenyl)-N-{(2-hydroxy-1-tetrahydrofuran-3-yl)ethyl}-3-oxo-2,3-dihydropyridazine-4-carboxamide], the IC50 is 5.33e-07 M on AHR [1] (setting [3]) and more than 2e-05 M at AHR [2] (setting [5]).
`O=C(NCC(O)C(F)(F)F)c1cc(-c2ccc(Cl)cc2)nn(-c2ccccc2)c1=O` (single isomer, unassigned) [Example 78, 6-(4-chlorophenyl)-3-oxo-2-phenyl-N-(3,3,3-trifluoro-2-hydroxypropyl)-2,3-dihydropyridazine-4-carboxamide]: the IC50 was 2.66e-07 M on AHR [1] (setting [3]) and more than 2e-05 M on AHR [2] (setting [5]).
Regarding `O=C(NCC1(O)CC1)c1cc(-c2ccc(Cl)cc2)nn(-c2cccc(F)c2)c1=O` [Example 196, 6-(4-Chlorophenyl)-2-(3-fluorophenyl)-N-[(1-hydroxycyclopropyl)methyl]-3-oxo-2,3-dihydropyridazine-4-carboxamide], the IC50 at AHR [1] (setting [3]) is 1.04e-07 M; against AHR [2] (setting [4]) it was more than 2e-05 M.
`O=C(NCC(O)C(F)(F)F)c1cc(-c2ccc(Cl)cc2)nn(-c2cccc(Cl)c2)c1=O` (single isomer, unassigned) [Example 64, 2-(3-Chlorophenyl)-6-(4-chlorophenyl)-3-oxo-N-(3,3,3-trifluoro-2-hydroxypropyl)-2,3-dihydropyridazine-4-carboxamide]: the results for the IC50 against AHR [1] (setting [3]) and on AHR [2] (setting [5]) were 3.66e-07 M and more than 2e-05 M, respectively.
As to `CC(C)(O)CNC(=O)c1cc(-c2ccc(Cl)cc2)nn(-c2cccc(F)c2)c1=O` [Example 188, 6-(4-Chlorophenyl)-2-(3-fluorophenyl)-N-(2-hydroxy-2-methylpropyl)-3-oxo-2,3-dihydropyridazine-4-carboxamide], the IC50 against AHR [1] (setting [3]) is 7.88e-08 M; against AHR [2] (setting [4]), more than 2e-05 M.
Regarding `COCC(O)CNC(=O)c1cc(-c2ccc(Cl)cc2)nn(-c2cccc(F)c2)c1=O` (single isomer, unassigned) [Example 33, 6-(4-Chlorophenyl)-2-(3-fluorophenyl)-N-(2-hydroxy-3-methoxypropyl)-3-oxo-2,3-dihydropyridazine-4-carboxamide], the IC50 is 2.11e-07 M on AHR [1] (setting [3]) and more than 2e-05 M at AHR [2] (setting [5]).
`C[C@@H](CO)NC(=O)c1cc(-c2ccc(Cl)cc2)nn(-c2ccccc2)c1=O` [Example 80, 6-(4-chlorophenyl)-N-[(2S)-1-hydroxypropan-2-yl]-3-oxo-2-phenyl-2,3-dihydropyridazine-4-carboxamide]: the IC50 on AHR [1] (setting [3]) is 2.14e-07 M; on AHR [2] (setting [4]) it was more than 2e-05 M.
The corresponding values for `COCC(O)CNC(=O)c1cc(-c2ccc(Cl)c(Cl)c2)nn(-c2cccc(F)c2)c1=O` (stereo not shown) [Example 303, 6-(3,4-Dichlorophenyl)-2-(3-fluorophenyl)-N-(2-hydroxy-3-methoxypropyl)-3-oxo-2,3-dihydropyridazine-4-carboxamide] are 8.73e-07 M and more than 2e-05 M.
The corresponding values for `N#Cc1cccc(-n2nc(-c3ccc(Cl)cc3)cc(C(=O)NCC(O)C(F)(F)F)c2=O)c1` (single isomer, unassigned) [Example 363, 6-(4-chlorophenyl)-2-(3-cyanophenyl)-3-oxo-N-(3,3,3-trifluoro-2-hydroxypropyl)-2,3-dihydropyridazine-4-carboxamide] are 2.22e-07 M and more than 2e-05 M.
The matching figures for `O=C(N[C@@H](CO)Cc1ccccc1)c1cc(-c2ccc(C(F)(F)F)cc2)nn(-c2cccc(F)c2)c1=O` [Example 252, 2-(3-Fluorophenyl)-N-[(2R)-1-hydroxy-3-phenylpropan-2-yl]-3-oxo-6-[4-(trifluoromethyl)phenyl]-2,3-dihydropyridazine-4-carboxamide]: 6.43e-06 M and more than 2e-05 M.
For the compound `O=C(NCC(O)C(F)F)c1cc(-c2ccc(Cl)cc2)nn(-c2cccc(F)c2)c1=O` (racemic) [Example 221, 6-(4-Chlorophenyl)-N-[(2RS)-3,3-difluoro-2-hydroxypropyl]-2-(3-fluorophenyl)-3-oxo-2,3-dihydropyridazine-4-carboxamide], the IC50 on AHR [1] (setting [3]) is 7.64e-08 M; against AHR [2] (setting [4]), more than 2e-05 M.
